From article PMC2939961 (Journal of neurochemistry, 2010)
Where a name gives a salt, the structure may show the parent alone.

Experiments:
[1] = molecular target: T1, Ostα-Ostβ (organic solute transporter, Ostα subunit) (Mus musculus, UniProt Q80WK2+Q8R000); conditions: read-out: % inhibition at 500 μM
T1 sequence (Q8R000 1-340): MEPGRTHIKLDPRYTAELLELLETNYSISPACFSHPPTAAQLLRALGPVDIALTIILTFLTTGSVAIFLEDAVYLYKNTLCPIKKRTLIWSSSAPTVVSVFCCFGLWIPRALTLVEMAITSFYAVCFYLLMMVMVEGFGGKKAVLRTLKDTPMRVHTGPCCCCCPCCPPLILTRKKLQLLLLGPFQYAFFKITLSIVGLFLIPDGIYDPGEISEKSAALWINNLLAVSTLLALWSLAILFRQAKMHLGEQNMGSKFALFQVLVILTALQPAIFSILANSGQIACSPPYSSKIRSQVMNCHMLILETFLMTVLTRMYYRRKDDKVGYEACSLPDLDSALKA
T1 sequence (Q80WK2 1-128): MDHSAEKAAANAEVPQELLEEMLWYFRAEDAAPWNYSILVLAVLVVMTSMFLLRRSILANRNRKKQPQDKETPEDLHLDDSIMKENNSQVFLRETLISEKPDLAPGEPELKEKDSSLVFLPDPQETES

[2] = molecular target: T2, OSTα-OSTβ (organic solute transporter, OSTα subunit) (Homo sapiens, UniProt Q86UW1+Q86UW2); conditions: read-out: % inhibition at 500 μM
T2 sequence (Q86UW1 1-340): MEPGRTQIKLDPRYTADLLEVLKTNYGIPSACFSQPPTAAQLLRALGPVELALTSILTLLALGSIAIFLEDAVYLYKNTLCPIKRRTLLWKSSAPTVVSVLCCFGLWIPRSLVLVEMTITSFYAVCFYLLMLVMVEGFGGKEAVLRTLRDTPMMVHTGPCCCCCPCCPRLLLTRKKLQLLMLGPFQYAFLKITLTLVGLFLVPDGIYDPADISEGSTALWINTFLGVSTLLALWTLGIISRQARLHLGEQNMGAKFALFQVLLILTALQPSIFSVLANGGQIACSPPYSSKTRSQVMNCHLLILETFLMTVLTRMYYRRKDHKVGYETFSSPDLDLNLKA
T2 sequence (Q86UW2 1-128): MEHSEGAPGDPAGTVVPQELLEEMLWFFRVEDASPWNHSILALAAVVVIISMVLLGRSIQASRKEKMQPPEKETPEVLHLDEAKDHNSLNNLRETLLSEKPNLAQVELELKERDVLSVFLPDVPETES

| Compound | inhibition at 500 µM [1] | inhibition at 500 µM [2] |
| --- | --- | --- |
| CC(=O)[C@H]1CC[C@H]2[C@@H]3CC=C4C[C@@H](OS(=O)(=O)O)CC[C@]4(C)[C@H]3CC[C@]12C [PREGS, pregnenolone sulfate] | ~65% |  |
| C[C@]12CC[C@@H](OS(=O)(=O)O)C[C@@H]1CC[C@@H]1[C@@H]2CC[C@]2(C)C(=O)CC[C@@H]12 [Androsterone sulfate] | ~65% | ~65% |
